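Values below derive from 48-hour exposures of cells grown in 96-well plates, with endpoints linearly interpolated between the two concentrations bracketing the appropriate inhibition level. Definition used: TGI = concentration required for complete inhibition of growth.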
Assays:
Experiment in all cases: NCI tumour cell line growth inhibition, 48 h
786-0 renal = system: 786-0 renal
A498 renal = system: A498 renal
A549 NSCLC = system: A549 NSCLC
ACHN renal = system: ACHN renal
CAKI-1 renal = system: CAKI-1 renal
CCRF-CEM leukemia = system: CCRF-CEM leukemia
COLO 205 colon = system: COLO 205 colon
DLD-1 colon = system: DLD-1 colon
DMS 114 small cell lung = system: DMS 114 small cell lung
DMS 273 small cell lung = system: DMS 273 small cell lung
EKVX NSCLC = system: EKVX NSCLC
HCC-2998 colon = system: HCC-2998 colon
HCT-116 colon = system: HCT-116 colon
HCT-15 colon = system: HCT-15 colon
HL-60(TB) leukemia = system: HL-60(TB) leukemia
HOP-18 NSCLC = system: HOP-18 NSCLC
HOP-62 NSCLC = system: HOP-62 NSCLC
HOP-92 NSCLC = system: HOP-92 NSCLC
HT29 colon = system: HT29 colon
IGROV1 ovarian = system: IGROV1 ovarian
K-562 leukemia = system: K-562 leukemia
KM12 colon = system: KM12 colon
KM20L2 colon = system: KM20L2 colon
LOX IMVI melanoma = system: LOX IMVI melanoma
LXFL 529 NSCLC = system: LXFL 529 NSCLC
M14 melanoma = system: M14 melanoma
M19-MEL melanoma = system: M19-MEL melanoma
MALME-3M melanoma = system: MALME-3M melanoma
MOLT-4 leukemia = system: MOLT-4 leukemia
NCI-H226 lung = system: NCI-H226 lung
NCI-H23 lung = system: NCI-H23 lung
NCI-H460 lung = system: NCI-H460 lung
NCI-H522 lung = system: NCI-H522 lung
OVCAR-3 ovarian = system: OVCAR-3 ovarian
OVCAR-4 ovarian = system: OVCAR-4 ovarian
OVCAR-5 ovarian = system: OVCAR-5 ovarian
OVCAR-8 ovarian = system: OVCAR-8 ovarian
RPMI-8226 leukemia = system: RPMI-8226 leukemia
RXF 393 renal = system: RXF 393 renal
RXF-631 renal = system: RXF-631 renal
SF-268 CNS = system: SF-268 CNS
SF-295 CNS = system: SF-295 CNS
SF-539 CNS = system: SF-539 CNS
SK-MEL-28 melanoma = system: SK-MEL-28 melanoma
SK-MEL-5 melanoma = system: SK-MEL-5 melanoma
SK-OV-3 ovarian = system: SK-OV-3 ovarian
SN12C renal = system: SN12C renal
SNB-19 CNS = system: SNB-19 CNS
SNB-75 CNS = system: SNB-75 CNS
SNB-78 CNS = system: SNB-78 CNS
SR leukemia = system: SR leukemia
SW-620 colon = system: SW-620 colon
TK-10 renal = system: TK-10 renal
U251 CNS = system: U251 CNS
UACC-257 melanoma = system: UACC-257 melanoma
UACC-62 melanoma = system: UACC-62 melanoma
UO-31 renal = system: UO-31 renal
XF 498 CNS = system: XF 498 CNS
SK-MEL-2 melanoma = system: SK-MEL-2 melanoma

CC(=O)/C=C/c1cccc(N=S)c1
TGI (786-0 renal): 13.1 µM | TGI (A498 renal): 78.7 µM | TGI (A549 NSCLC): > 59.1 µM | TGI (ACHN renal): > 53.3 µM | TGI (CAKI-1 renal): > 100 µM | TGI (CCRF-CEM leukemia): > 49.1 µM | TGI (COLO 205 colon): > 48 µM | TGI (DLD-1 colon): 16.5 µM | TGI (DMS 114 small cell lung): > 66.1 µM | TGI (DMS 273 small cell lung): 20.9 µM | TGI (EKVX NSCLC): > 63 µM | TGI (HCC-2998 colon): 34.6 µM | TGI (HCT-116 colon): 2.72 µM | TGI (HCT-15 colon): 31.9 µM | TGI (HL-60(TB) leukemia): 34.2 µM | TGI (HOP-18 NSCLC): > 100 µM | TGI (HOP-62 NSCLC): > 100 µM | TGI (HOP-92 NSCLC): > 100 µM | TGI (HT29 colon): 19.5 µM | TGI (IGROV1 ovarian): > 48.4 µM | TGI (K-562 leukemia): > 35.9 µM | TGI (KM12 colon): 20.2 µM | TGI (KM20L2 colon): 37 µM | TGI (LOX IMVI melanoma): 5.92 µM | TGI (LXFL 529 NSCLC): 32.9 µM | TGI (M14 melanoma): 22.4 µM | TGI (M19-MEL melanoma): 18.3 µM | TGI (MALME-3M melanoma): > 100 µM | TGI (MOLT-4 leukemia): > 75.2 µM | TGI (NCI-H226 lung): > 83.3 µM | TGI (NCI-H23 lung): > 92.7 µM | TGI (NCI-H460 lung): > 53.8 µM | TGI (NCI-H522 lung): > 53.7 µM | TGI (OVCAR-3 ovarian): 48.4 µM | TGI (OVCAR-4 ovarian): > 100 µM | TGI (OVCAR-5 ovarian): > 100 µM | TGI (OVCAR-8 ovarian): 31 µM | TGI (RPMI-8226 leukemia): > 27.8 µM | TGI (RXF 393 renal): 53.8 µM | TGI (RXF-631 renal): > 100 µM | TGI (SF-268 CNS): > 69.6 µM | TGI (SF-295 CNS): 54.3 µM | TGI (SF-539 CNS): 20.8 µM | TGI (SK-MEL-28 melanoma): 44.6 µM | TGI (SK-MEL-5 melanoma): 63.4 µM | TGI (SK-OV-3 ovarian): > 81.9 µM | TGI (SN12C renal): 87.2 µM | TGI (SNB-19 CNS): > 87.5 µM | TGI (SNB-75 CNS): > 91.8 µM | TGI (SNB-78 CNS): > 100 µM | TGI (SR leukemia): > 100 µM | TGI (SW-620 colon): 6.68 µM | TGI (TK-10 renal): > 89.9 µM | TGI (U251 CNS): 20.8 µM | TGI (UACC-257 melanoma): > 67.4 µM | TGI (UACC-62 melanoma): > 57.2 µM | TGI (UO-31 renal): > 74 µM | TGI (XF 498 CNS): > 100 µM

CCC1CCC2CCCC(C)N12 (stereo not drawn)
TGI (786-0 renal): > 100 µM | TGI (A549 NSCLC): > 100 µM | TGI (ACHN renal): > 100 µM | TGI (CAKI-1 renal): > 100 µM | TGI (CCRF-CEM leukemia): > 100 µM | TGI (COLO 205 colon): > 100 µM | TGI (DLD-1 colon): > 100 µM | TGI (DMS 114 small cell lung): > 100 µM | TGI (DMS 273 small cell lung): > 100 µM | TGI (EKVX NSCLC): > 100 µM | TGI (HCC-2998 colon): > 100 µM | TGI (HCT-116 colon): > 100 µM | TGI (HCT-15 colon): > 100 µM | TGI (HL-60(TB) leukemia): > 100 µM | TGI (HOP-18 NSCLC): > 100 µM | TGI (HOP-62 NSCLC): > 100 µM | TGI (HOP-92 NSCLC): > 100 µM | TGI (IGROV1 ovarian): > 100 µM | TGI (K-562 leukemia): > 100 µM | TGI (KM12 colon): > 100 µM | TGI (KM20L2 colon): > 100 µM | TGI (LXFL 529 NSCLC): > 100 µM | TGI (M14 melanoma): > 100 µM | TGI (M19-MEL melanoma): > 100 µM | TGI (MALME-3M melanoma): > 100 µM | TGI (MOLT-4 leukemia): > 100 µM | TGI (NCI-H226 lung): > 100 µM | TGI (NCI-H23 lung): > 100 µM | TGI (NCI-H522 lung): > 100 µM | TGI (OVCAR-3 ovarian): > 100 µM | TGI (OVCAR-4 ovarian): > 100 µM | TGI (OVCAR-8 ovarian): > 100 µM | TGI (RPMI-8226 leukemia): > 100 µM | TGI (RXF-631 renal): > 100 µM | TGI (SF-268 CNS): > 100 µM | TGI (SF-295 CNS): > 100 µM | TGI (SF-539 CNS): > 100 µM | TGI (SK-MEL-2 melanoma): > 100 µM | TGI (SK-MEL-28 melanoma): > 100 µM | TGI (SN12C renal): > 100 µM | TGI (SNB-19 CNS): > 100 µM | TGI (SNB-75 CNS): > 100 µM | TGI (SR leukemia): > 100 µM | TGI (SW-620 colon): > 100 µM | TGI (TK-10 renal): > 100 µM | TGI (U251 CNS): > 100 µM | TGI (UACC-257 melanoma): > 100 µM | TGI (UACC-62 melanoma): > 100 µM | TGI (UO-31 renal): > 100 µM | TGI (XF 498 CNS): > 100 µM

Source: PubChem BioAssay (NCI)
